In the supplement of paper PMC11061612:

What was measured:
Test in all cases: Bliss excess, mean over the matrix (fraction); higher = more synergy
[1] = test system: HSC-4 (Oral Cavity Carcinoma)
Summary of the method: (§1)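 After 24 hours at 37°C and 5% CO2 in 1536-well plates, cells in DMEM/F12 or RPMI plus 10% FBS received two-drug dose matrices for 72 hours. Viability came from CellTiter-Glo 2.0 luminescence and was scaled as inhibition, anchored at 0 by vehicle wells and at 1 by blank wells. Combination Emax is taken as the second-highest inhibition in the matrix, and Bliss excess as the observed combination effect less EA + EB − EA·EB, with EA and EB the single-agent effects.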

[2] = test system: NCI-H1915 (Non-Small Cell Lung Carcinoma)
Summary of the method: as §1

PWR-1E (Non-Cancerous) = test system: PWR-1E (Non-Cancerous)
Summary of the method: as §1

[3] = test system: SU8686 (Pancreatic Carcinoma)
Summary of the method: as §1

CN(CCO)CC[C@H](CSc1ccccc1)Nc1ccc(S(=O)(=O)NC(=O)c2ccc(N3CCC([C@@H](O)c4ccccc4-c4ccc(Cl)cc4)CC3)cc2)cc1S(=O)(=O)C(F)(F)F [AZD4320] + C=CCn1c(=O)c2cnc(Nc3ccc(N4CCN(C)CC4)cc3)nc2n1-c1cccc(C(C)(C)O)n1 [AZD1775] (first compound max 1 µM, partner max 1 µM) was tested, and the Bliss excess [1] was 0.023, the Bliss excess [2] was 0.0125 and the Bliss excess (PWR-1E (Non-Cancerous)) was -0.0111. For the same compound, the Bliss excess [3] was -0.0598.
Cc1cc2ncnn2cc1Nc1ncc2c(n1)n(C1CCOCC1)c(=O)n2C [AZD7648] + C=CCn1c(=O)c2cnc(Nc3ccc(N4CCN(C)CC4)cc3)nc2n1-c1cccc(C(C)(C)O)n1 [AZD1775] (first compound max 10 µM, partner max 1 µM) gave a Bliss excess [1] of -0.0082, a Bliss excess [2] of -0.0738 and a Bliss excess (PWR-1E (Non-Cancerous)) of 0.0256. For the same compound, the Bliss excess [3] was -0.0542.
CN(CCO)CC[C@H](CSc1ccccc1)Nc1ccc(S(=O)(=O)NC(=O)c2ccc(N3CCC([C@@H](O)c4ccccc4-c4ccc(Cl)cc4)CC3)cc2)cc1S(=O)(=O)C(F)(F)F [AZD4320] + Cc1cc2ncnn2cc1Nc1ncc2c(n1)n(C1CCOCC1)c(=O)n2C [AZD7648] (first compound max 1 µM, 7x7, partner max 10 µM) was tested, and the Bliss excess [1] was -0.0592, the Bliss excess [2] was -0.0254 and the Bliss excess (PWR-1E (Non-Cancerous)) was -0.0352. The Bliss excess [3] was -0.0355.
For Cc1cc2ncnn2cc1Nc1ncc2c(n1)n(C1CCOCC1)c(=O)n2C [AZD7648] + CN(C)CCCOc1ccc(-c2ccc3ncc4c(c3c2)n(C2CCOCC2)c(=O)n4C)cn1 [AZD0156] (first compound max 10 µM, 7x7, partner max 1 µM), the Bliss excess [1] was -0.0154, the Bliss excess [2] was -0.0208 and the Bliss excess (PWR-1E (Non-Cancerous)) was 0.0532. For the same compound, the Bliss excess [3] was -0.0144.
Compound Cc1cc2ncnn2cc1Nc1ncc2c(n1)n(C1CCOCC1)c(=O)n2C [AZD7648] + O=C(c1cc(Cc2n[nH]c(=O)c3ccccc23)ccc1F)N1CCN(C(=O)C2CC2)CC1 [Olaparib] (first compound max 10 µM, 7x7, partner max 10 µM) has a Bliss excess [1] of -0.0448, a Bliss excess [2] of -0.0215 and a Bliss excess (PWR-1E (Non-Cancerous)) of -0.0005. It also gave a Bliss excess [3] of -0.0457.
Work on CN(CCO)CC[C@H](CSc1ccccc1)Nc1ccc(S(=O)(=O)NC(=O)c2ccc(N3CCC([C@@H](O)c4ccccc4-c4ccc(Cl)cc4)CC3)cc2)cc1S(=O)(=O)C(F)(F)F [AZD4320] + C[C@@H]1COCCN1C2=NC(=NC(=C2)C3(CC3)[S@](=N)(=O)C)C4=C5C=CNC5=NC=C4 [AZD6738] (first compound max 1 µM, 7x7, partner max 10 µM) yielded a Bliss excess [1] of 0.12, a Bliss excess [2] of -0.044 and a Bliss excess (PWR-1E (Non-Cancerous)) of -0.0313. It also gave a Bliss excess [3] of -0.0222.
C[C@@H](c1ccc2nccn2c1)n1nnc2ncc(-c3cnn(C)c3)nc21 [Savolitinib] + Cc1c2c(nn1C)CSCc1cc(n(C)n1)CSc1cc(c3ccccc3c1)OCCCc1c(C(=O)O)n(C)c3c-2c(Cl)ccc13 [AZD5991] (first compound max 1 µM, 7x7, partner max 1 µM) showed a Bliss excess [1] of -0.0864, a Bliss excess [2] of -0.0587 and a Bliss excess (PWR-1E (Non-Cancerous)) of -0.0664. It also gave a Bliss excess [3] of -0.0127.
In the case of CN(CCO)CC[C@H](CSc1ccccc1)Nc1ccc(S(=O)(=O)NC(=O)c2ccc(N3CCC([C@@H](O)c4ccccc4-c4ccc(Cl)cc4)CC3)cc2)cc1S(=O)(=O)C(F)(F)F [AZD4320] + C1CN(CCC1(C(=O)N[C@@H](CCO)C2=CC=C(C=C2)Cl)N)C3=NC=NC4=C3C=CN4 [Capivasertib] (first compound max 1 µM, 7x7, partner max 3 µM), the Bliss excess [1] is reported as -0.0269, the Bliss excess [2] is reported as -0.0459 and the Bliss excess (PWR-1E (Non-Cancerous)) is reported as -0.0067. For the same compound, the Bliss excess [3] was -0.0385.
CN(CCO)CC[C@H](CSc1ccccc1)Nc1ccc(S(=O)(=O)NC(=O)c2ccc(N3CCC([C@@H](O)c4ccccc4-c4ccc(Cl)cc4)CC3)cc2)cc1S(=O)(=O)C(F)(F)F [AZD4320] + CCN(CCO)CCCOc1ccc2c(Nc3cc(CC(=O)Nc4cccc(F)c4)[nH]n3)ncnc2c1 [AZD2811] (first compound max 1 µM, 7x7, partner max 1 µM) was tested, and the Bliss excess [1] was -0.0335, the Bliss excess [2] was 0.0393 and the Bliss excess (PWR-1E (Non-Cancerous)) was 0.0514. For the same compound, the Bliss excess [3] was -0.03.
In the case of COc1cc2ncnc(Nc3ccc(F)c(Cl)c3)c2cc1OCCCN1CCOCC1 [Gefitinib] + CC(C)n1c(=O)n(C)c2cnc3cc(F)c(-c4ccc(OCCCN5CCCCC5)nc4)cc3c21 [AZD1390] (first compound max 10 µM, 7x7, partner max 0.3 µM), the Bliss excess [1] is reported as -0.0847, the Bliss excess [2] is reported as -0.0433 and the Bliss excess (PWR-1E (Non-Cancerous)) is reported as -0.0234. The Bliss excess [3] was -0.0378.
With CN(CCO)CC[C@H](CSc1ccccc1)Nc1ccc(S(=O)(=O)NC(=O)c2ccc(N3CCC([C@@H](O)c4ccccc4-c4ccc(Cl)cc4)CC3)cc2)cc1S(=O)(=O)C(F)(F)F [AZD4320] + Cn1cnc2c(F)c(Nc3ccc(Br)cc3Cl)c(C(=O)NOCCO)cc21 [Selumetinib] (first compound max 1 µM, 7x7, partner max 3 µM) the Bliss excess [1] was 0.0732, the Bliss excess [2] was 0.0324 and the Bliss excess (PWR-1E (Non-Cancerous)) was 0.0024. For the same compound, the Bliss excess [3] was -0.0002.
With Cc1cc2ncnn2cc1Nc1ncc2c(n1)n(C1CCOCC1)c(=O)n2C [AZD7648] + C[C@@H]1COCCN1C2=NC(=NC(=C2)C3(CC3)[S@](=N)(=O)C)C4=C5C=CNC5=NC=C4 [AZD6738] (first compound max 10 µM, 7x7, partner max 10 µM) the Bliss excess [1] was -0.0165, the Bliss excess [2] was -0.0216 and the Bliss excess (PWR-1E (Non-Cancerous)) was -0.109. It also gave a Bliss excess [3] of -0.0289.
With CN(CCO)CC[C@H](CSc1ccccc1)Nc1ccc(S(=O)(=O)NC(=O)c2ccc(N3CCC([C@@H](O)c4ccccc4-c4ccc(Cl)cc4)CC3)cc2)cc1S(=O)(=O)C(F)(F)F [AZD4320] + C[C@@H](Nc1cc(F)cc(F)c1)c1cc(C(=O)N(C)C)cc2c(=O)cc(N3CCOCC3)oc12 [AZD8186] (first compound max 1 µM, 7x7, partner max 3 µM) the Bliss excess [1] was -0.12, the Bliss excess [2] was 0.0202 and the Bliss excess (PWR-1E (Non-Cancerous)) was -0.0097. The Bliss excess [3] was -0.0031.
With Cc1cc2ncnn2cc1Nc1ncc2c(n1)n(C1CCOCC1)c(=O)n2C [AZD7648] + CCN(CCO)CCCOc1ccc2c(Nc3cc(CC(=O)Nc4cccc(F)c4)[nH]n3)ncnc2c1 [AZD2811] (first compound max 10 µM, 7x7, partner max 1 µM) the Bliss excess [1] was 0.0036, the Bliss excess [2] was -0.0444 and the Bliss excess (PWR-1E (Non-Cancerous)) was 0.0299. It also gave a Bliss excess [3] of -0.0135.
For C[C@@H](c1ccc2nccn2c1)n1nnc2ncc(-c3cnn(C)c3)nc21 [Savolitinib] + CC1(C)CCC(CN2CCN(c3ccc(C(=O)NS(=O)(=O)c4ccc(NCC5CCOCC5)c([N+](=O)[O-])c4)c(Oc4cnc5[nH]ccc5c4)c3)CC2)=C(c2ccc(Cl)cc2)C1 [Venetoclax] (first compound max 1 µM, 7x7, partner max 1 µM), the Bliss excess [1] was -0.0776, the Bliss excess [2] was -0.0456 and the Bliss excess (PWR-1E (Non-Cancerous)) was -0.034. The Bliss excess [3] was -0.0617.
Compound COc1cc2c(cc1OCCCCCOc1cc3c(cc1OC)C(=O)N1C=C(C)C[C@H]1C=N3)N=C[C@@H]1CC(C)=CN1C2=O [SG3199] + O=C(c1cc(Cc2n[nH]c(=O)c3ccccc23)ccc1F)N1CCN(C(=O)C2CC2)CC1 [Olaparib] (first compound max 0.001 µM, 7x7, partner max 10 µM) has a Bliss excess [1] of -0.046, a Bliss excess [2] of -0.0248 and a Bliss excess (PWR-1E (Non-Cancerous)) of -0.0258. For the same compound, the Bliss excess [3] was -0.0388.
Cc1nc(Nc2ncc(C(=O)Nc3c(C)cccc3Cl)s2)cc(N2CCN(CCO)CC2)n1 [Dasatinib] + CC(=O)Nc1cccc(-n2c(=O)n(C3CC3)c(=O)c3c(Nc4ccc(I)cc4F)n(C)c(=O)c(C)c32)c1 [Trametinib] (first compound max 2 µM, 7x7, partner max 1 µM) was tested, and the Bliss excess [1] was -0.0681, the Bliss excess [2] was 0.0564 and the Bliss excess (PWR-1E (Non-Cancerous)) was 0.0481. The Bliss excess [3] was -0.0328.
